Reference: ChEMBL document CHEMBL4321828, “Recent developments on (-)-colchicine derivatives: Synthesis and structure-activity relationship” (Eur J Med Chem, 2020)
pIC50: −log10 of the molar value.

Assays:
[1] = tested on: KB 3-1; assay: Antiproliferative activity against human KB3-1 cells assessed as reduction in cell viability after 96 hrs by methylene blue staining based spectrophotometric method; type: functional; conditions: KB 3-1, 96 h
[2] = Antiproliferative activity against human KB-8-5-11 cells assessed as reduction in cell viability after 96 hrs by methylene blue staining based spectrophotometric method; type: functional
[3] = tested on: A2780; assay: Antiproliferative activity against human A2780 cells assessed as reduction in cell viability by MTT assay; type: functional, cell-based
[4] = tested on: A549; assay: Antiproliferative activity against human A549 cells assessed as reduction in cell viability by MTT assay; type: functional, cell-based
[5] = tested on: Bel-7402; assay: Antiproliferative activity against human Bel7402 cells assessed as reduction in cell viability by MTT assay; type: functional, cell-based
[6] = tested on: MCF7; assay: Antiproliferative activity against human MCF7 cells assessed as reduction in cell viability by MTT assay; type: functional, cell-based
[7] = tested on: A549; assay: Antiproliferative activity against human A549 cells assessed as reduction in cell viability incubated for 24 hrs by SRB assay; type: functional, cell-based; conditions: A549, 24 h
[8] = tested on: SK-OV-3; assay: Antiproliferative activity against human SKOV3 cells assessed as reduction in cell viability incubated for 24 hrs by SRB assay; type: functional, cell-based; conditions: SK-OV-3, 24 h
[9] = tested on: SK-MEL-2; assay: Antiproliferative activity against human SK-MEL-2 cells assessed as reduction in cell viability incubated for 24 hrs by SRB assay; type: functional, cell-based; conditions: SK-MEL-2, 24 h
[10] = tested on: HCT-15; assay: Antiproliferative activity against human HCT15 cells assessed as reduction in cell viability incubated for 24 hrs by SRB assay; type: functional, cell-based; conditions: HCT-15, 24 h
[11] = tested on: MCF7; assay: Antiproliferative activity against human MCF7 cells assessed as reduction in cell viability incubated for 24 hrs by SRB assay; type: functional, cell-based; conditions: MCF7, 24 h
[12] = molecular target: ATP-dependent translocase ABCB1 (Homo sapiens, UniProt P08183); assay: Induction of P-gp in human LS180 cells assessed as […] in intracellular accumulation of Rh123 at 100 nM using Rho123 as substrate preincubated for 48 hrs followed by addition of Rh123 and measured after 90 mins by fluorescence based assay relative to control; type: cell-based; conditions: ls180, 48 h preincubation, then 1.5 h with Rh123, 0.1 µM
[13] = tested on: HCT-116; assay: Antiproliferative activity against human HCT116 cells assessed as reduction in cell viability incubated for 48 hrs by MTT assay; type: functional, cell-based; conditions: HCT-116, 48 h
[14] = tested on: COLO 205; assay: Antiproliferative activity against human COLO205 cells assessed as reduction in cell viability incubated for 48 hrs by MTT assay; type: functional, cell-based; conditions: COLO 205, 48 h
[15] = tested on: DLD-1; assay: Antiproliferative activity against human DLD1 cells assessed as reduction in cell viability; type: functional, cell-based
[16] = tested on: LoVo; assay: Antiproliferative activity against human LoVo cells assessed as reduction in cell viability; type: functional, cell-based
[17] = tested on: MCF7; assay: Antiproliferative activity against human MCF7 cells assessed as reduction in cell viability; type: functional, cell-based
[18] = tested on: MDA-MB-231; assay: Antiproliferative activity against human MDA-MB-231 cells assessed as reduction in cell viability; type: functional, cell-based

Chain of ATP-dependent translocase ABCB1 (P08183 whole entry): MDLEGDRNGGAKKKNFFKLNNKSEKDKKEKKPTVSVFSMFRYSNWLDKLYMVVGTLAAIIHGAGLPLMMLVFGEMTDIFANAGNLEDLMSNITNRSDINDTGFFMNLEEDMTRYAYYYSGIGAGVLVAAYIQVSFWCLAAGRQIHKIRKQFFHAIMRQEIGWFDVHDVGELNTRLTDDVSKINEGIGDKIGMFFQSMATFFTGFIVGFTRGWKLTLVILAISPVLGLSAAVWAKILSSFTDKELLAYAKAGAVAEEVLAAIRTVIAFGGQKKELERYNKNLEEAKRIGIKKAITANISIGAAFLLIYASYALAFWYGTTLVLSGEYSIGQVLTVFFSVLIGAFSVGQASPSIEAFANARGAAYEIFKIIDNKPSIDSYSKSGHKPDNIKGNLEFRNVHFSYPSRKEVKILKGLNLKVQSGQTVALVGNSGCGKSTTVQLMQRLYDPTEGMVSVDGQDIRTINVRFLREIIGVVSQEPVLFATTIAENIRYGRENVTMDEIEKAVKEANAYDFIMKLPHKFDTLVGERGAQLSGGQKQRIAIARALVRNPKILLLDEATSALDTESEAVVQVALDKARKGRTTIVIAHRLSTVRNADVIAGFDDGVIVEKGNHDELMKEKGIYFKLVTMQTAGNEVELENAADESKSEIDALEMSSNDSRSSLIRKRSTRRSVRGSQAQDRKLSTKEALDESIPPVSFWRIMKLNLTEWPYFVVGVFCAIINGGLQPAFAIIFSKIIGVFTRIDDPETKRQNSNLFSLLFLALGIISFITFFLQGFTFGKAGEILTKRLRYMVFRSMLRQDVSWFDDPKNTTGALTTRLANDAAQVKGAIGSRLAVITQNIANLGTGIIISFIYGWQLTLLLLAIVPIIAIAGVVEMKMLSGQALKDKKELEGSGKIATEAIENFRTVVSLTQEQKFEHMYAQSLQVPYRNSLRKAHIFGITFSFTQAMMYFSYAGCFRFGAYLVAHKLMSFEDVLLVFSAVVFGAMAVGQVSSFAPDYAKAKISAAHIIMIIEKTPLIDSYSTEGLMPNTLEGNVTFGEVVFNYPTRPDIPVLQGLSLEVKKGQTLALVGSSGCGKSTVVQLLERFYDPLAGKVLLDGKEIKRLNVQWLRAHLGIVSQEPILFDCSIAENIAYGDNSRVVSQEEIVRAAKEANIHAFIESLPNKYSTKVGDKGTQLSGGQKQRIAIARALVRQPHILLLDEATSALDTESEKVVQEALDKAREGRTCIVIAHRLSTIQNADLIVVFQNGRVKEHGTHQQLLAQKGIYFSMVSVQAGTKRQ

Row | SMILES | pIC50 [7] | pIC50 [10] | pIC50 [11] | Activity [12] | pIC50 [13] | pIC50 [14] | also measured
1 | COc1c(COC2CCCCO2)c2c(c(OC)c1OC)-c1ccc(OC)c(=O)cc1[C@@H](NC(C)=O)CC2 (stereo partly drawn) |  |  |  |  |  |  | pIC50 [1]: < 6.00; pIC50 [2]: < 6.00
2 | CNc1ccc2c(cc1=O)[C@@H](NC(=O)CCC(=O)OCCCCO[N+](=O)[O-])CCc1cc(OC)c(OC)c(OC)c1-2 |  |  |  |  |  |  | pIC50 [3]: 8.00; pIC50 [4]: 7.92; pIC50 [5]: 7.89; pIC50 [6]: 8.10
3 | CC/C=C\C/C=C\C/C=C\C/C=C\C/C=C\C/C=C\CCC(=O)N[C@H]1CCc2cc(OC)c(OC)c(OC)c2-c2ccc(SC)c(=O)cc21 | 6.04 | 6.41 | 6.31 |  |  |  | pIC50 [8]: 5.58; pIC50 [9]: 5.70
4 | CCCCCCCCCCCCCC[C@H]1OC(C)(C)O[C@H]1[C@@H](NC(=O)OC(C)(C)C)C(=O)N[C@H]1CCc2cc(OC)c(OC)c(OC)c2-c2ccc(SC)c(=O)cc21 | 6.64 | 6.69 | 6.52 |  |  |  | pIC50 [8]: 6.17; pIC50 [9]: 6.89
5 | COc1cc2c(c(OC)c1OC)-c1ccc(SC)c(=O)cc1[C@@H](NC(=O)Cc1ccccc1Nc1c(Cl)cccc1Cl)CC2 | 6.28 | 6.51 | 6.53 |  |  |  | pIC50 [8]: 5.82; pIC50 [9]: 5.98
6 | COc1cc2c(c(OC)c1OC)-c1ccc(N3CCC(N)CC3)c(=O)cc1[C@@H](NC(C)=O)CC2 |  |  |  | 102.04% | 5.00 | 5.30 | 
7 | COc1cc2c(c(OC)c1OC)-c1ccc(N3CCC(c4ccccc4)CC3)c(=O)cc1[C@@H](NC(C)=O)CC2 |  |  |  | 101.03% | 6.00 | 6.10 | 
8 | COc1cc2c(c(OC)c1OC)-c1ccc(N3CCN(C(=O)OC(C)(C)C)CC3)c(=O)cc1[C@@H](NC(C)=O)CC2 |  |  |  | 90.94% | 5.40 | 5.52 | 
9 | COc1cc2c(c(OC)c1OC)-c1ccc(N3CCNCC3)c(=O)cc1[C@@H](NC(C)=O)CC2 |  |  |  | 95.52% | < 5.00 | 5.10 | 
10 | COc1cc2c(c(OC)c1OC)-c1ccc(SC)c(=O)cc1[C@@H](NC(=O)CC[C@H](NC(=O)c1ccc(NCc3cnc4nc(N)nc(O)c4n3)cc1)C(=O)O)CC2 | 5.30 | 5.93 | 6.16 |  |  |  | 
11 | C=C(C)[C@@H]1CC=C(C(=O)N[C@H]2CCc3cc(OC)c(OC)c(OC)c3-c3ccc(SC)c(=O)cc32)CC1 | 8.12 | 8.09 | 8.28 |  |  |  | pIC50 [8]: 7.76; pIC50 [9]: 7.75
12 | CCCSc1ccc2c(cc1=O)[C@@H](NC(C)=O)CCc1cc(OC)c(OC)c(OC)c1-2 |  |  |  |  |  |  | pIC50 [15]: 7.14; pIC50 [16]: 7.25; pIC50 [17]: 6.12; pIC50 [18]: 6.15
13 | CNc1ccc2c(cc1=O)[C@@H](NC(=O)CCC(=O)OC/C=C/CO[N+](=O)[O-])CCc1cc(OC)c(OC)c(OC)c1-2 |  |  |  |  |  |  | pIC50 [3]: 6.69; pIC50 [4]: 6.87; pIC50 [5]: 6.92; pIC50 [6]: 6.69
14 | COc1cc2c(c(OC)c1OC)-c1ccc(N3CCC4c5ccccc5NC4C3)c(=O)cc1[C@@H](NC(C)=O)CC2 (stereo partly drawn) |  |  |  | 119.7% | 5.52 | 6.10 | 
15 | COc1cc2c(c(OC)c1OC)-c1ccc(SC(C)C)c(=O)cc1[C@@H](NC(C)=O)CC2 |  |  |  |  |  |  | pIC50 [15]: 6.75; pIC50 [16]: 6.83; pIC50 [17]: 6.25; pIC50 [18]: 5.96

Continued, in another order:

Row | pIC50 [7] | pIC50 [10] | pIC50 [11] | Activity [12] | pIC50 [13] | pIC50 [14] | SMILES | also measured
16 | 7.85 | 7.73 | 8.11 |  |  |  | COc1cc2c(c(OC)c1OC)-c1ccc(SC)c(=O)cc1[C@@H](NC(=O)[C@H](O)[C@@H](O)[C@H](O)[C@H](O)CO)CC2 | pIC50 [8]: 7.53; pIC50 [9]: 7.91
17 |  |  |  | 95.97% | 5.30 | 5.92 | COc1cc2c(c(OC)c1OC)-c1ccc(N3CCOCC3)c(=O)cc1[C@@H](NC(C)=O)CC2 | 
18 |  |  |  | 102.82% | 5.52 | 6.00 | COc1cc2c(c(OC)c1OC)-c1ccc(N3CCN(C)CC3)c(=O)cc1[C@@H](NC(C)=O)CC2 | 
19 |  |  |  | 102.66% | 5.40 | 5.52 | COc1cc2c(c(OC)c1OC)-c1ccc(Nc3ccc4c(c3)OCO4)c(=O)cc1[C@@H](NC(C)=O)CC2 | 
20 |  |  |  | 95.38% | 6.10 | 6.37 | CCN(CC)c1ccc2c(cc1=O)[C@@H](NC(C)=O)CCc1cc(OC)c(OC)c(OC)c1-2 | 
